This is an account of results in PubChem BioAssay AID1996.

Converted amounts (≈) assume the structure as drawn.

The conditions of this data set: buffer; pH 7.4; 200.0 µM.
`CCNCC(O)c1cccc(O)c1` (stereo unspecified) yielded a kinetic solubility of 18.9 µg/mL (≈ 104 µM).
`Cc1ccc(SCc2ccc(C(=O)N3CCCC3)cc2)cc1` displayed a solubility (kinetic) of 31 µg/mL (≈ 99.5 µM).
`CCOc1ccccc1OCCN1CCCC1` came in with a kinetic solubility of 24.1 µg/mL (≈ 102 µM).
Turning to `O=C(COC(=O)/C=C/c1ccccc1)NC1CC1`, the kinetic solubility is above 36.8 µg/mL.
As to `C#CCSc1nc(C)cc(C(=O)OCC)c1C#N`, the kinetic solubility worked out at 7.2 µg/mL (≈ 27.7 µM).
The result for `O=c1cnc2ccccc2n1Cc1ccc(Br)cc1` reads 2.7 µg/mL (≈ 8.57 µM).
`O=C(NC1CCS(=O)(=O)C1)c1ccccc1Cl` (stereo unspecified) showed a solubility (kinetic) above 41.1 µg/mL.
On to `Cc1cc(C)c(S(=O)(=O)N2CCCC2)c(C)c1`, for which the solubility (kinetic) turned out to be 30.4 µg/mL (≈ 120 µM).
In the case of `c1ccc(-c2noc(C3CCC3)n2)nc1`, the solubility (kinetic) was 20.6 µg/mL (≈ 102 µM).
Consider `O=C(Nc1ccccc1Cl)c1cccc(NC(=O)C2CCCC2)c1`, for which the kinetic solubility is 26.9 µg/mL (≈ 78.5 µM).
The result for `CC(=O)c1cccc(NC(=O)Nc2ccc3c(c2)CCC3)c1` reads 0.3 µg/mL (≈ 1.02 µM); that for `O=C(O)c1nccnc1C(=O)Nc1ccc(Cl)cc1Cl`, above 46.8 µg/mL; that for `Cc1cc(C)n2nc(SCC(=O)N3CCCC(C)C3)nc2n1` (stereo unspecified), above 47.9 µg/mL.
The result for `CC(=O)O/N=C/c1c(NCc2ccccc2)nc2c(C)cccn2c1=O` reads 25.7 µg/mL (≈ 73.3 µM).
On to `CC1CC(=O)Nc2cc([N+](=O)[O-])ccc2N1` (stereo unspecified), for which the kinetic solubility is above 33.2 µg/mL.
The figure for `CC(C)Cn1c(=S)[nH]c2cc(C(=O)O)ccc2c1=O` is above 41.7 µg/mL; for `CCS(=O)(=O)N1CCN(C(=O)c2cccc3ccccc23)CC1` it is above 49.9 µg/mL.
Turning to `O=[N+]([O-])c1cccc2c(S(=O)(=O)N3CCCCC3)cccc12`, the solubility (kinetic) turned out to be 9.5 µg/mL (≈ 29.7 µM).
The result for `Cc1ccc(N2C(=O)C3C4C=CC(CC4)C3C2=O)cc1Br` (stereo unspecified) reads below 0.7 µg/mL; that for `O=C(Oc1ccc2c(c1)O/C(=C\c1ccncc1)C2=O)c1cccs1`, 2.2 µg/mL (≈ 6.3 µM).
The result for `Cc1ccc(C(=O)NCC(c2ccc(F)cc2)N2CCOCC2)cc1` (stereo unspecified) reads 44.4 µg/mL (≈ 130 µM).
The result for `COc1ccc(-c2csc(NC(=O)[C@H](C)N3C(=O)C4CC=CCC4C3=O)n2)cc1OC` (stereo partly specified) reads 38.2 µg/mL (≈ 86.5 µM); that for `COC(=O)c1ccccc1NS(=O)(=O)c1ccc(Cl)nc1`, 48 µg/mL (≈ 147 µM); that for `CC(=O)N[C@@H](CC(=O)O)C(=O)O`, above 26.3 µg/mL.
Consider `CCOC(=O)c1cc(NC(=O)/C=C\C(=O)O)ccc1Cl`, for which the solubility (kinetic) was above 44.7 µg/mL.
The result for `O=C1OC(N2C(=O)CC[C@H]2C(=O)NCC2CCCO2)c2ccccc21` (stereo partly specified) reads above 51.7 µg/mL.
The result for `CC(=O)c1ccc(OCC(O)CNCc2ccc3c(c2)OCO3)cc1` (stereo unspecified) reads 46.2 µg/mL (≈ 135 µM).
For the compound `COc1ccc(S(=O)(=O)N2CCc3ccccc32)cc1[N+](=O)[O-]`, the solubility (kinetic) worked out at 6.4 µg/mL (≈ 19.1 µM).
`Brc1ccccc1Cn1cnc2ccccc21` displayed a kinetic solubility of 27.8 µg/mL (≈ 96.8 µM).
In the case of `CS(=O)(=O)Nc1ccccc1C(=O)NCCSc1ccccc1`, the solubility (kinetic) was 51 µg/mL (≈ 146 µM).
Turning to `O=C(NCc1ccco1)c1ccc(Cn2c(=S)[nH]c3ccccc3c2=O)cc1`, the solubility (kinetic) was 0.4 µg/mL (≈ 1.02 µM).
The figure for `Cc1ccc(NC(=O)CN2C(=O)S/C(=C\c3ccccn3)C2=O)cc1C` is below 0.3 µg/mL.
The result for `CCN(CC)C(=O)N1CCN(C(=O)N2CCOCC2)CC1` reads 30 µg/mL (≈ 101 µM); that for `Cc1ccc(S(=O)(=O)N2CCOCC2)cc1C(=O)OCC(=O)NCCc1ccccc1`, above 67 µg/mL.
The compound `CN1CCN(C(=O)c2cc([N+](=O)[O-])ccc2Cl)CC1` yielded a kinetic solubility above 42.6 µg/mL.
The compound `Cc1ccc(S(=O)(=O)Nc2ncccn2)cc1` showed a solubility (kinetic) above 37.4 µg/mL.
The figure for `CC(=O)c1c(O)c2ccccc2n(C2CCCCC2)c1=O` is 1.4 µg/mL (≈ 4.91 µM); for `O=C(COC(=O)c1ccc[nH]c1=O)NC1CCCCC1` it is 37 µg/mL (≈ 133 µM).
`CC(NC(=O)Cn1cccc1)c1ccccc1` (stereo unspecified) had a kinetic solubility above 34.2 µg/mL.
The result for `CCN(CC)S(=O)(=O)c1ccc(Oc2ccccc2OC)cc1` reads 10 µg/mL (≈ 29.8 µM).
Regarding `CCCc1cc(=O)[nH]c(SCC(=O)Nc2ccc3ccccc3c2)n1`, the solubility (kinetic) came out at 2.6 µg/mL (≈ 7.36 µM).

One may read the solubility (kinetic) as solubility judged after dilution from a stock solution rather than from solid.
